US20160017048A1, “TARGETING CD138 IN CANCER” (priority 2013, published 2016)

Tests used:
iC9 suicide gene [1] = assay: in vitro elimination of transduced T cells by AP1903 activation of iC9; type: cell-based; details: within 24 hrs of in vitro exposure to AP1903 (20-50 nM)
Protocol: A stable producer line with a titer >10^6 per mL may be developed. The T-cell transduction efficiency may range from 30% to 40% in hypoxia (FIG. 3). Redirected T cells can eliminate CD138+ targets in coculture experiments in hypoxia and can be rapidly eliminated (>90% of transduced cells) within 24 hrs of in vitro exposure to AP1903 (20-50 nM), the small molecule dimerizer that activates the iC9 suicide gene.

iC9 suicide gene [2] = assay: in vivo elimination of hCAR.CD138 T cells by AP1903 in patients; design: species or system human; details: within 3 hours of AP1903 administration
Text: Persistence and expansion of transferred T cells are estimated using immunophenotype and real-time quantitative PCR assay (Q-PCR) in DNA extracted from PB collected at different time points after T-cell infusions. BM samples are collected at week 6 as part of the clinical evaluation of these patients. Plasma samples are collected and snap frozen at intervals to detect IL-2, IL6, IFNγ and TNFα released by T cells in vivo. One can also seek clinical evidence of antitumor activity by monitoring paraprotein levels and PC BM infiltration at 6, 12 and 24 weeks, for example. Patients are closely monitored for the occurrence of toxicity according to NCI criteria. In the case of grade III-IV toxicity, patients are treated with AP1903 to activate the iC9 gene as previously reported. The iC9 effects are quantified by measuring the loss of CAR+ circulating cells and by changes in the iC9 transgene by QPCR.
The molecular signal of the CAR (which is hypoxia independent) is detected both in PB and BM samples by week 6, even though there may be higher signal in the BM because of the accumulation of CAR T cells. The expression of the CAR by flow cytometry in T cells (which is hypoxia dependent, as it detects protein synthesis) is anticipated to be much higher in BM as compared to PB because MM BM is hypoxic. […]

## CC[C@H](C(=O)N1CCCC[C@H]1C(=O)O[C@H](CCc1ccc(OC)c(OC)c1)c1cccc(OCC(=O)NCCNC(=O)COc2cccc([C@@H](CCc3ccc(OC)c(OC)c3)OC(=O)[C@@H]3CCCCN3C(=O)[C@@H](CC)c3cc(OC)c(OC)c(OC)c3)c2)c1)c1cc(OC)c(OC)c(OC)c1 [AP1903]
iC9 suicide gene [1]
  transduced cells eliminated: > 90%
iC9 suicide gene [2]
  hCAR.CD138T eliminated: > 90%
